According to ChEMBL document CHEMBL3301546, “MMV Malaria Box yeast growth screening”:

Tests used:
Format in all cases: functional
Saccharomyces cerevisiae [1] = assay: (§1) MMV: Growth assays were conducted using the prototrophic S. cerevisiae strain JHY222. Each MMV compound (0.1 mM) was tested in rich media containing dextrose as a carbon source (Yeast Extract, Peptone, Dextrose; YPD). The growth rate in the presence of each MMV compound was calculated as follows: (i) the first 10 OD readings were averaged and subtracted from all OD readings of the corresponding curve to set the baseline of the growth curve to zero, and (ii) the area under the curve (AUC) was then calculated as the sum of all OD readings. […] A relative growth value was calculated as follows: AUC(DRUG) - AUC(DMSO)/AUC(DMSO); where AUC(DMSO) represents growth measured in a DMSO control well that was on the same microtiter plate of the drug-treated culture.
Saccharomyces cerevisiae [2] = assay: as §1, with “minimal” for “rich”, “Nitrogen Base,” for “Extract, Peptone,”, “YNBD).” for “YPD).”
Saccharomyces cerevisiae [3] = assay: as §1, with “minimal” for “rich”, “ethanol and glycerol” for “dextrose”, “as” for “as a”, “sources” for “source”, “Nitrogen Base, Ethanol, Glycerol; YNBEG).” for “Extract, Peptone, Dextrose; YPD).”

Row | SMILES | Relative Growth (Saccharomyces cerevisiae [1]) | Relative Growth (Saccharomyces cerevisiae [2]) | Relative Growth (Saccharomyces cerevisiae [3])
1 | COc1ccc(C2c3ccc4ccccc4c3Oc3ncn(CCCN(C)C)c(=N)c32)cc1 (centres undefined) | -0.012 | -0.0503 | -0.0587
2 | Nc1nc(Nc2cccc(F)c2)nc2ccccc12 | -0.0359 | -0.0889 | -0.012
3 | COc1ccc(/C=C2/SC(=Nc3ccccc3)NC2=O)cc1 | -0.1491 | -0.223 | -0.9641
4 | Cc1sc(NC(=O)c2ccco2)c(C(c2cccnc2)N2CCC(Cc3ccccc3)CC2)c1C (centres undefined) | -0.0153 | 0.0125 | 0.0498
5 | CCOC(=O)c1c(C)n(-c2ccccc2)c2ccc(OC(=O)c3cc(OC)c(OC)c(OC)c3)cc12 | -0.0253 | -0.0133 | -0.2171
6 | COc1cc(C(=O)Nc2nc3c(cc4c5c(cccc53)CC4)s2)cc(OC)c1OC | 0.0021 | -0.1254 | -0.0592
7 | COc1ccc(CCN2C(=O)c3[nH]nc(-c4cc(Cl)c(C)cc4O)c3C2c2ccccc2F)cc1 (centres undefined) | -0.0103 | -0.1352 | -0.023
8 | O=C(NNc1cc(N2CCCC2)nc(N2CCCC2)n1)c1ccccc1 | -0.9952 | 0.0342 | -0.0043
9 | COC(=O)c1ccc(Cl)c2c1C1C=CCC1C(c1cccc3ccccc13)N2 (centres undefined) | -0.0285 | 0.053 | 0.0199
10 | COc1ccc(C2c3ccc4ccccc4c3Oc3ncn(CCCn4ccnc4)c(=N)c32)cc1OC (centres undefined) | 0.015 | -0.111 | 0.1296
11 | CN(N=O)C1=C(NC2CCCCC2)C(=O)c2ccccc2C1=O | -0.04 | -0.0674 | -0.7745
12 | O=C(CCc1ccccc1)c1ccccc1OCC(O)CN1CCCCC1 (centres undefined) | -0.6663 | 0.0209 | -0.1402
13 | OC1=C2C(=Nc3ccccc3SC2c2ccccc2)c2ccccc21 (centres undefined) | -0.0053 | -0.1585 | -0.0669
14 | Cc1ccc(C(=O)c2oc3ccc4c(C)cc(=O)oc4c3c2C)cc1 | -0.0457 | -0.0077 | -0.1519
15 | CCCCCCc1cc2cc(-c3csc(C=Cc4ccccc4)n3)c(=O)oc2cc1O | -0.0646 | -0.058 | -0.0651
16 | Oc1ccc(-c2nc(-c3ccc4oc5ccc(-c6[nH]c(-c7ccc(O)cc7)nc6-c6ccccc6)cc5c4c3)c(-c3ccccc3)[nH]2)cc1 | -0.979 | 0.0106 | -0.1734
17 | COc1ccc(CNC(=O)c2cc3c(=O)n4ccccc4nc3n(CCc3ccccc3)c2=N)cc1 | -0.0554 | -0.2162 | -0.0439
18 | O=C(NC1CCN(Cc2ccccc2)CC1)c1cc(C(=O)NC2CCN(Cc3ccccc3)CC2)cc(C(=O)NC2CCN(Cc3ccccc3)CC2)c1 | -0.0223 | 0.0347 | -0.1727
19 | CC(=O)c1sc(NC(=O)Nc2ccc(C)cc2C)nc1C | -0.0731 | -0.0182 | 0.0857
20 | COc1ccc(-c2cn3c(C(=O)Nc4ccccc4Cl)c(-c4ccccc4)c4c3n2CCCC4)cc1 | -0.0135 | 0.0523 | -0.235
21 | Cn1c(C(=O)c2cccc3ccccc23)nc2ccccc21 | -0.0135 | 0.0393 | 0.1204
22 | CCN(CC)CCNc1ccnc2cc3ccccc3cc12.O=P(O)(O)O | 0.0094 | -0.1052 | -0.0873

Row | SMILES | Relative Growth (Saccharomyces cerevisiae [1]) | Relative Growth (Saccharomyces cerevisiae [2]) | Relative Growth (Saccharomyces cerevisiae [3])
23 | COc1ccc(C=C2SC(Nc3ccc(F)cc3)=NC2=O)c(OC)c1 | -0.0657 | -0.7691 | -0.8081
24 | Oc1ccc2ccccc2c1CNc1nc2ccccc2[nH]1 | -0.0053 | -0.1179 | -0.0356
25 | O=C(Nc1ccc(-c2nc3ccccc3[nH]2)cc1)c1ccc(Cl)c(Cl)c1 | 0.0053 | 0.027 | 0.0462
26 | O=C1c2ccc3c4c(ccc(c24)C(=O)N1CCCCO)C(=O)N(CCCCO)C3=O | -0.136 | -0.7093 | -1.0287
27 | OCCNc1nc(Nc2ccc(Cl)c(Cl)c2)nc2ccccc12 | 0.0231 | -0.1441 | 0.0602
28 | Nc1ccc(-c2nc3cc(Oc4ccc(Oc5ccc6[nH]c(-c7ccc(N)cc7)nc6c5)cc4)ccc3[nH]2)cc1 | -0.9892 | 0.0002 | -0.1502
29 | CCOC(=O)c1cnc2ccc(OC)cc2c1Nc1ccc(N2CCN(C)CC2)cc1 | -0.0196 | 0.0562 | -0.1675
30 | Cc1cc(N(C)C)nc(Nc2ccc(NC(=O)Nc3ccccc3)cc2)n1 | -0.0299 | -0.0678 | -0.3445
31 | COc1ccccc1C(=O)ON=C(N)Cc1cccc2ccccc12 | 0.0139 | 0.0083 | 0.0174
32 | COc1ccc(C(=O)C(CCC(CNC(C)(C)C)C(=O)c2ccc(OC)cc2)CNC(C)(C)C)cc1 (centres undefined) | -0.0341 | -0.0754 | -0.4347
33 | CCOc1cc2c(cc1OCC)C(c1cc(Cl)ccc1O)NCC2 (centres undefined) | -0.0098 | 0.0319 | -0.522
34 | COc1cc(C(=O)ON=C(N)Cc2cccc3ccccc23)cc(OC)c1OC | -0.2539 | 0.2835 | 0.1784
35 | CN1C=C(c2ccc3ccccc3n2)C(c2c[nH]c3ccccc23)c2ccccc21 (centres undefined) | -0.6873 | 0.0287 | -0.048
36 | Oc1c(C(Nc2ccccn2)c2cccc(Oc3ccccc3)c2)ccc2cccnc12 (centres undefined) | -0.9969 | 0.0038 | -0.1371
37 | COc1cc(-c2nc(-c3ccccc3)c(-c3ccccc3)[nH]2)cc(OC)c1O | -0.0158 | 0.0542 | -0.1558
38 | OC(CNC1CCCCC1)Cn1c2ccc(I)cc2c2cc(I)ccc21 (centres undefined) | 0.0125 | 0.4002 | -0.0994
39 | c1ccc(CNc2nc(Nc3ccccc3)nc3ccccc23)cc1 | -0.0158 | -0.1327 | -0.0499
40 | Oc1ccc(Br)cc1CN1CCN(Cc2ccc(Cl)cc2)CC1 | 0.004 | -0.144 | -0.4008
41 | COc1cc2c3cc1Oc1c(OC)c(OC)cc4c1C(Cc1ccc(O)c(c1)Oc1ccc(cc1)CC3N(C)CC2)N(C)CC4.Cl (centres undefined) | -0.0961 | 0.0109 | -0.1414
42 | CC1CC2=C(CC1CNCCCN(C)C)C(C)(C)CCC2 (centres undefined) | 0.0011 | 0.0086 | -0.1687
43 | CCCn1c(=N)c(C(=O)NC2CCCCC2)cc2c(=O)n3cccc(C)c3nc21 | -0.0177 | 0.1028 | 0.0799
